Results: US20260125397A1, “MK2 DEGRADERS AND USES THEREOF” (Kymera Therapeutics, Inc., priority 2023, published 2026)

target: T1, MK2 (Homo sapiens, UniProt P49137); test: MK2 degradation in human SW1353 cells (MSD, 24 h); format: cell-based; parameters: endogenous in cells; host or cells: SW-1353 (ATCC HTB-94); settings: read-out: MK2 MSD SW 1353 24 h Dmax %
Description: The human chondrocyte cancer cell line SW-1353 (ATCC(HTB-94)) was cultured in 96 well plates (Coming 3894) at a density of 200,000 cells per well in 100 microlitres in complete growth medium of Leibovitz's L-15 Medium (Gibco) pus 10% fetal Bovine Serum (Coming) and Penicillin/Streptomycin (SolarBio) at 37 degrees Celsius. A serial dilution of each compound (usually 3 to 5 fold serial dilutions up to 10 separate concentration points) was added to individual wells from a 10 millimolar stock solution, at a background concentration of 0.10% DMSO and the cells were shaken at 600 rpm for 5 minutes and then were cultured for 24 hours at 37 degrees Celsius. Separately, a custom MSD (MesoScaleDiscovery, L15XA-3) plate for detection of human MK2 was prepared by coating the plate with the commercial AbCam ab247272 reagent in 1× Phosphate Buffered Saline at 40 microlitres per well and incubated at 4 degrees Celsius overnight. The next day, the MSD plate was washed with 150 microlitres of Tween buffered saline, blocked with MSD blocking buffer (3% Blocker A from MSD), and washed again.
The cell plate was centrifuged at 3,200 g for 5 minutes and the supernatant was discarded and 100 microlitres of RIPA lysis buffer (containing proteinase inhibitors, Boston BioProducts BP-115D) was added and the plate was sealed and shaken on ice for 20 minutes. The plate was centrifuged as before and 70 microlitres of sample lysate was added to the MSD plates and they were shaken at room temperature for 1 hour at 600 rpm. The MSD plate was washed 3 times as before and then the primary MK2 detection antibody (Santa Cruz sc-100393) was added at a final concentration of 1 microgram per ml at 25 microlitres per well and shaken at room temperature for 1 hour at 600 rpm.
(§1) After 3 more washes, the secondary detection antibody (SULFO-Tag anti rabbit antibody R32AB-5) was added at a final concentration of 1 microgram per ml at 25 microlitres per well and shaken at room temperature for 1 hour at 600 rpm. After 3 more washes, the 1X MSD (diluted from 5X concentrate with water) reading buffer was added at 150 microlitres per well and read on the MSD instrument Meso Sector S 600.
(§2) The inhibition/degradation curves and DC50 values were plotted and calculated using XL Fit (version v5.3.1.3) using equation 201 and a 4 parameter logistic model whereby fit=(A+((B−A)/(1+((x/C)D))) where A is the Bottom and B is the Top and C is the IC50 and D is the slope and high C is the signal for the DMSO treated cells and Low C is the signal is the signal for the lysis buffer.

T1 sequence (P49137 whole entry): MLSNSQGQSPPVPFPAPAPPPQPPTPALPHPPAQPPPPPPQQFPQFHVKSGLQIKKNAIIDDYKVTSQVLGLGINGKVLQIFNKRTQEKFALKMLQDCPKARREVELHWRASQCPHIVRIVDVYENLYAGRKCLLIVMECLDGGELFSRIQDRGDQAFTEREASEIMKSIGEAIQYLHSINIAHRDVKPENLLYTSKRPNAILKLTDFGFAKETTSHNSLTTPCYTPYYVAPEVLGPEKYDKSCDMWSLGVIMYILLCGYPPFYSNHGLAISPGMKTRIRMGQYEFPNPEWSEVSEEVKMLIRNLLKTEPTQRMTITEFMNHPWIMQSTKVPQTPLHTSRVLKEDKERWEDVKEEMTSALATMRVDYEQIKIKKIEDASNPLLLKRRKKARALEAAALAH

Compound | Dmax [%]
Cn1c(=O)n(C2CCC(=O)NC2=O)c2ccc(N3CC(CN4CCN(c5ccc(-c6nccc(-c7cc8c([nH]7)C7(CC7)CNC8=O)n6)cc5)CC4)C3)cc21 (stereo not drawn) [I-45] | > 50
C[C@@H]1CNc2c(sc3ccc4nc(N5CCC(N(CC(F)F)C6CC7(CCN(c8ccc9c(c8)n(C)c(=O)n9C8CCC(=O)NC8=O)CC7)C6)CC5)ccc4c23)C(=O)N1 (stereo partly drawn) [I-46] | > 75
Cn1c(=O)n(C2CCC(=O)NC2=O)c2ccc(N3CC(CN4CCN(c5ccc(-c6nccc(-c7cc8c([nH]7)C7(CC7)CNC8=O)n6)cc5OC5CC5)CC4)C3)cc21 (stereo not drawn) [I-47] | > 50
Cn1c(=O)n(C2CCC(=O)NC2=O)c2ccc(N3CC(CN4CCN(c5ccc(-c6nccc(-c7cc8c([nH]7)C7(CC7)CNC8=O)n6)cc5C(F)(F)F)CC4)C3)cc21 (stereo not drawn) [I-48] | 50 to 75
Cn1c(=O)n(C2CCC(=O)NC2=O)c2ccc(N3CC(CN4CCN(c5ccc(-c6nccc(-c7cc8c([nH]7)C7(CC7)CNC8=O)n6)cc5C5CC5)CC4)C3)cc21 (stereo not drawn) [I-49] | > 50
C[C@@H]1CNc2c(sc3ccc4nc(N5CCN(CC6CC7(CCN(c8ccc9c(N%10CCC(=O)NC%10=O)cncc9c8)CC7)C6)CC5)ccc4c23)C(=O)N1 [I-50] | > 75
Cn1c(=O)n(C2CCC(=O)NC2=O)c2ccc(N3CCN(CC#Cc4ccc(-c5nccc(-c6cc7c([nH]6)C6(CC6)CNC7=O)n5)cc4)CC3)cc21 (stereo not drawn) [I-51] | > 50
C[C@@H]1CNc2c(sc3ccc4nc(N5CCC(CN6CCC7(CC6)CN(c6ccc8c(c6)n(C)c(=O)n8C6CCC(=O)N(C)C6=O)C7)CC5)ccc4c23)C(=O)N1 (stereo partly drawn) [I-52] | > 75
COc1cc(-c2nccc(-c3cc4c([nH]3)C3(CC3)CNC4=O)n2)ccc1N1CCN(CC2CN(c3ccc4c(c3)n(C)c(=O)n4C3CCC(=O)NC3=O)C2)CC1 (stereo not drawn) [I-54] | > 50

same assay, conditions: read-out: MK2 MSD SW1353 degradation 24 h GMean External Abs DC50

Compound | DC50 [nM]
Cn1c(=O)n(C2CCC(=O)NC2=O)c2ccc(N3CC(CN4CCN(c5ccc(-c6nccc(-c7cc8c([nH]7)C7(CC7)CNC8=O)n6)cc5)CC4)C3)cc21 (stereo not drawn) [I-45] | > 100
C[C@@H]1CNc2c(sc3ccc4nc(N5CCC(N(CC(F)F)C6CC7(CCN(c8ccc9c(c8)n(C)c(=O)n9C8CCC(=O)NC8=O)CC7)C6)CC5)ccc4c23)C(=O)N1 (stereo partly drawn) [I-46] | < 1
Cn1c(=O)n(C2CCC(=O)NC2=O)c2ccc(N3CC(CN4CCN(c5ccc(-c6nccc(-c7cc8c([nH]7)C7(CC7)CNC8=O)n6)cc5OC5CC5)CC4)C3)cc21 (stereo not drawn) [I-47] | > 100
Cn1c(=O)n(C2CCC(=O)NC2=O)c2ccc(N3CC(CN4CCN(c5ccc(-c6nccc(-c7cc8c([nH]7)C7(CC7)CNC8=O)n6)cc5C(F)(F)F)CC4)C3)cc21 (stereo not drawn) [I-48] | < 1
Cn1c(=O)n(C2CCC(=O)NC2=O)c2ccc(N3CC(CN4CCN(c5ccc(-c6nccc(-c7cc8c([nH]7)C7(CC7)CNC8=O)n6)cc5C5CC5)CC4)C3)cc21 (stereo not drawn) [I-49] | 10 to 100
C[C@@H]1CNc2c(sc3ccc4nc(N5CCN(CC6CC7(CCN(c8ccc9c(N%10CCC(=O)NC%10=O)cncc9c8)CC7)C6)CC5)ccc4c23)C(=O)N1 [I-50] | < 1
Cn1c(=O)n(C2CCC(=O)NC2=O)c2ccc(N3CCN(CC#Cc4ccc(-c5nccc(-c6cc7c([nH]6)C6(CC6)CNC7=O)n5)cc4)CC3)cc21 (stereo not drawn) [I-51] | 1 to 10
C[C@@H]1CNc2c(sc3ccc4nc(N5CCC(CN6CCC7(CC6)CN(c6ccc8c(c6)n(C)c(=O)n8C6CCC(=O)N(C)C6=O)C7)CC5)ccc4c23)C(=O)N1 (stereo partly drawn) [I-52] | 1 to 10
COc1cc(-c2nccc(-c3cc4c([nH]3)C3(CC3)CNC4=O)n2)ccc1N1CCN(CC2CN(c3ccc4c(c3)n(C)c(=O)n4C3CCC(=O)NC3=O)C2)CC1 (stereo not drawn) [I-54] | < 1

target: T1, MK2; test: MK2 degradation in human THP-1 monocytic cells (MSD, 24 h); format: cell-based; parameters: endogenous in cells; settings: THP-1 cells
Description: The human monocytic cancer cell line THP-1 (ATCC (TIB-202)) was cultured in 96 well plates (Coming 3894) at a density of 200,000 cells per well in 100 microlitres in complete growth medium of RPMI 1640 (Gibco) pus 10% fetal Bovine Serum (Coming) and Penicillin/Streptomycin (SolarBio) at 37 degrees Celsius and 5% CO2. A serial dilution of each compound (usually 3 to 5 fold serial dilutions up to 10 separate concentration points) was added to individual wells from a 10 millimolar stock solution, at a background concentration of 0.1% DMSO and the cells were shaken at 600 rpm for 5 minutes and then were cultured for 24 hours at 37 degrees Celsius and 5% carbon dioxide. Separately, a custom MSD (MesoScaleDiscovery, L15XA-3) plate for detection of human MK2 was prepared by coating the plate with the commercial AbCarn ab247272 reagent in 1× Phosphate Buffered Saline at 40 microlitres per well and incubated at 4 degrees Celsius overnight. The next day, the MSD plate was washed with 150 microlitres of Tween buffered saline, blocked with MSD blocking buffer (3% BlockerA from MSD), and washed again.
The cell plate was centrifuged at 3,200 g for 5 minutes and the supernatant was discarded and 100 microlitres of RIPA lysis buffer (containing proteinase inhibitors, Boston BioProducts BP-115D) was added and the plate was sealed and shaken on ice for 20 minutes. The plate was centrifuged as before and 70 microlitres of sample lysate was added to the MSD plates and they were shaken at room temperature for I hour at 600 rpm. The MSD plate was washed 3 times as before and then the primary MK2 detection antibody (Santa Cruz sc-100393) was added at a final concentration of 1 microgram per ml at 25 microlitres per well and shaken at room temperature for 1 hour at 600 rpm.
as §1
as §2, with “IC50and” for “IC50 and”

Compound | Dmax [%]
Cn1c(=O)n(C2CCC(=O)NC2=O)c2ccc(N3CC(CN4CCN(c5ccc(-c6nccc(-c7cc8c([nH]7)C7(CC7)CNC8=O)n6)cc5)CC4)C3)cc21 (stereo not drawn) [I-45] | > 50
C[C@@H]1CNc2c(sc3ccc4nc(N5CCC(N(CC(F)F)C6CC7(CCN(c8ccc9c(c8)n(C)c(=O)n9C8CCC(=O)NC8=O)CC7)C6)CC5)ccc4c23)C(=O)N1 (stereo partly drawn) [I-46] | > 75
Cn1c(=O)n(C2CCC(=O)NC2=O)c2ccc(N3CC(CN4CCN(c5ccc(-c6nccc(-c7cc8c([nH]7)C7(CC7)CNC8=O)n6)cc5OC5CC5)CC4)C3)cc21 (stereo not drawn) [I-47] | > 50
Cn1c(=O)n(C2CCC(=O)NC2=O)c2ccc(N3CC(CN4CCN(c5ccc(-c6nccc(-c7cc8c([nH]7)C7(CC7)CNC8=O)n6)cc5C(F)(F)F)CC4)C3)cc21 (stereo not drawn) [I-48] | > 75
Cn1c(=O)n(C2CCC(=O)NC2=O)c2ccc(N3CC(CN4CCN(c5ccc(-c6nccc(-c7cc8c([nH]7)C7(CC7)CNC8=O)n6)cc5C5CC5)CC4)C3)cc21 (stereo not drawn) [I-49] | 50 to 75
C[C@@H]1CNc2c(sc3ccc4nc(N5CCN(CC6CC7(CCN(c8ccc9c(N%10CCC(=O)NC%10=O)cncc9c8)CC7)C6)CC5)ccc4c23)C(=O)N1 [I-50] | > 75
Cn1c(=O)n(C2CCC(=O)NC2=O)c2ccc(N3CCN(CC#Cc4ccc(-c5nccc(-c6cc7c([nH]6)C6(CC6)CNC7=O)n5)cc4)CC3)cc21 (stereo not drawn) [I-51] | > 75
C[C@@H]1CNc2c(sc3ccc4nc(N5CCC(CN6CCC7(CC6)CN(c6ccc8c(c6)n(C)c(=O)n8C6CCC(=O)N(C)C6=O)C7)CC5)ccc4c23)C(=O)N1 (stereo partly drawn) [I-52] | > 75
COc1cc(-c2nccc(-c3cc4c([nH]3)C3(CC3)CNC4=O)n2)ccc1N1CCN(CC2CN(c3ccc4c(c3)n(C)c(=O)n4C3CCC(=O)NC3=O)C2)CC1 (stereo not drawn) [I-54] | 50 to 75

same assay, conditions: THP-1 cells, read-out: MK2 MSD THP-1 degradation 24 h GMean External Abs DC50

Compound | DC50 [nM]
Cn1c(=O)n(C2CCC(=O)NC2=O)c2ccc(N3CC(CN4CCN(c5ccc(-c6nccc(-c7cc8c([nH]7)C7(CC7)CNC8=O)n6)cc5)CC4)C3)cc21 (stereo not drawn) [I-45] | > 100
C[C@@H]1CNc2c(sc3ccc4nc(N5CCC(N(CC(F)F)C6CC7(CCN(c8ccc9c(c8)n(C)c(=O)n9C8CCC(=O)NC8=O)CC7)C6)CC5)ccc4c23)C(=O)N1 (stereo partly drawn) [I-46] | < 1
Cn1c(=O)n(C2CCC(=O)NC2=O)c2ccc(N3CC(CN4CCN(c5ccc(-c6nccc(-c7cc8c([nH]7)C7(CC7)CNC8=O)n6)cc5OC5CC5)CC4)C3)cc21 (stereo not drawn) [I-47] | < 1
Cn1c(=O)n(C2CCC(=O)NC2=O)c2ccc(N3CC(CN4CCN(c5ccc(-c6nccc(-c7cc8c([nH]7)C7(CC7)CNC8=O)n6)cc5C(F)(F)F)CC4)C3)cc21 (stereo not drawn) [I-48] | < 1
Cn1c(=O)n(C2CCC(=O)NC2=O)c2ccc(N3CC(CN4CCN(c5ccc(-c6nccc(-c7cc8c([nH]7)C7(CC7)CNC8=O)n6)cc5C5CC5)CC4)C3)cc21 (stereo not drawn) [I-49] | < 1
C[C@@H]1CNc2c(sc3ccc4nc(N5CCN(CC6CC7(CCN(c8ccc9c(N%10CCC(=O)NC%10=O)cncc9c8)CC7)C6)CC5)ccc4c23)C(=O)N1 [I-50] | < 1
Cn1c(=O)n(C2CCC(=O)NC2=O)c2ccc(N3CCN(CC#Cc4ccc(-c5nccc(-c6cc7c([nH]6)C6(CC6)CNC7=O)n5)cc4)CC3)cc21 (stereo not drawn) [I-51] | < 1
C[C@@H]1CNc2c(sc3ccc4nc(N5CCC(CN6CCC7(CC6)CN(c6ccc8c(c6)n(C)c(=O)n8C6CCC(=O)N(C)C6=O)C7)CC5)ccc4c23)C(=O)N1 (stereo partly drawn) [I-52] | > 100
COc1cc(-c2nccc(-c3cc4c([nH]3)C3(CC3)CNC4=O)n2)ccc1N1CCN(CC2CN(c3ccc4c(c3)n(C)c(=O)n4C3CCC(=O)NC3=O)C2)CC1 (stereo not drawn) [I-54] | < 1
